US12195482B1 (Arcus Biosciences, Inc., priority 2022, dated 2025)

Tests used:
[1] = target: T1, Axl (Homo sapiens, UniProt P30530); test: Biochemical potency, HTRF KinEASE-TK kinase assay; parameters: purchased Invitrogen; settings: 5 nM AXL, 700 μM ATP
T1 sequence (P30530 26-894): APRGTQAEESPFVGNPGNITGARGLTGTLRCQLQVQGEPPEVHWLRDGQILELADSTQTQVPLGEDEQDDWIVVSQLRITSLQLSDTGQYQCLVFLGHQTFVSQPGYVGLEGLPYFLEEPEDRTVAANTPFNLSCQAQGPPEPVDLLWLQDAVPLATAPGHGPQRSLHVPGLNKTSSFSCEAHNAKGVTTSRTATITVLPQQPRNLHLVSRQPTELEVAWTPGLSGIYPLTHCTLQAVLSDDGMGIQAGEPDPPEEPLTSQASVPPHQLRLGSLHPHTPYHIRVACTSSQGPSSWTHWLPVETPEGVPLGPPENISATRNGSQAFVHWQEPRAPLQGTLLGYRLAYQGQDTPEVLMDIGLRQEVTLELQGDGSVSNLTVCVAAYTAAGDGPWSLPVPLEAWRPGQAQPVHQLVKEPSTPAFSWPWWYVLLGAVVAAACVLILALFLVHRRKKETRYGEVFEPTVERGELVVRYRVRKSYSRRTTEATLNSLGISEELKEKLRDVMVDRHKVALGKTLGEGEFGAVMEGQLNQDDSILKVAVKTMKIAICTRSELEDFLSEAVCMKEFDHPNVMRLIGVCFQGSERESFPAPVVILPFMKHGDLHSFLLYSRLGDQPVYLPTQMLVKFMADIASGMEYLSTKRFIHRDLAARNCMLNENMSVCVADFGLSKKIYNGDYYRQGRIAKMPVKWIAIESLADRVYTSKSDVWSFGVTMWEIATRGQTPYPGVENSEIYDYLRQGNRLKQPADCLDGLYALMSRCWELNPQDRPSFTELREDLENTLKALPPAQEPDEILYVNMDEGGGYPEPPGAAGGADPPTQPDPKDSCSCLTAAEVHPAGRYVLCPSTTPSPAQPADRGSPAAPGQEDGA
Procedure, shortened: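 Enzyme (AXL 5 nM; TYRO3 or MER 1 nM final) was preincubated with compound for 1 h at RT, then reacted for 2 h at RT with 800 nM biotinylated TK substrate and 700 µM ATP in HEPES pH 7.4, MgCl2, DTT, BSA, 1% DMSO. Percent activity came from the HTRF 665/620 ratio.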

[2] = target: T2, p-AXL (Homo sapiens, UniProt P30530); test: Axl phosphorylation inhibition ELISA in HEK293T cells transfected with NanoLuc-tagged AXL; format: cell-based; settings: 1 h compound incubation, media (OptiMEM)
T2 construct: expressed in transfected cells; host or cells: HEK293T
T2 sequence (P30530 26-894): T1 sequence (P30530 26-894)
Procedure, shortened: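 HEK293T cells transiently transfected one day earlier with NanoLuc-tagged AXL were exposed to 22-point 2-fold compound dilutions for 1 h at 37° C (70,000 cells/well), then lysed. Lysates captured on anti-phospho-tyrosine coated plates for 2 h; bound p-AXL read by NanoLuc luminescence; IC50 from 4-parameter logistic fit.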

Row | IC50 [1] [nM] | IC50 [2] [nM] | SMILES
1 | < 100 | < 100 | Cc1nn(C)nc1-c1ccc(-c2n[nH]c3ncc(-c4ccc5c(c4)CC[C@@H](N4C6COCC4C6)CC5)cc23)cc1 [Example 14, 6-[(7S)-2-{3-[4-(2,5-Dimethyl-2H-1,2,3-triazol-4-yl)phenyl]-1H-pyrazolo[3,4-b]pyridin-5-yl}-6,7,8,9-tetrahydro-5H-benzo[7]annulen-7-yl]-3-oxa-6-azabicyclo[3.1.1]heptane]
2 | < 100 | < 100 | O=C1CCCN1c1cccnc1-c1ccc(-c2n[nH]c3ncc(-c4ccc5c(c4)CC[C@@H](N4C6COCC4C6)CC5)cc23)cc1 [Example 177, 1-[2-(4-{5-[(7S)-7-{3-Oxa-6-azabicyclo[3.1.1]heptan-6-yl}-6,7,8,9-tetrahydro-5H-benzo[7]annulen-2-yl]-1H-pyrazolo[3,4-b]pyridin-3-yl}phenyl)pyridin-3-yl]pyrrolidin-2-one]
3 | < 100 | 100 to 1000 | Cc1ccc(-c2ccc(-c3n[nH]c4ncc(-c5ccc6c(c5)CC[C@@H](N5C7COCC5C7)CC6)cc34)cc2)nc1 [Example 115, 6-[(7S)-2-{3-[4-(5-Methylpyridin-2-yl)phenyl]-1H-pyrazolo[3,4-b]pyridin-5-yl}-6,7,8,9-tetrahydro-5H-benzo[7]annulen-7-yl]-3-oxa-6-azabicyclo[3.1.1]heptane]
4 | < 100 | < 100 | CS(=O)(=O)c1cccnc1-c1ccc(-c2n[nH]c3ncc(-c4ccc5c(c4)CC[C@@H](N4C6COCC4C6)CC5)cc23)cc1 [Example 101, 6-[(7S)-2-{3-[4-(3-Methanesulfonylpyridin-2-yl)phenyl]-1H-pyrazolo[3,4-b]pyridin-5-yl}-6,7,8,9-tetrahydro-5H-benzo[7]annulen-7-yl]-3-oxa-6-azabicyclo[3.1.1]heptane]
5 | < 100 | < 100 | Cn1cnnc1-c1ccc(-c2n[nH]c3ncc(-c4ccc5c(c4)CC[C@@H](N4C6COCC4C6)CC5)cc23)cc1 [Example 169, 6-[(7S)-2-{3-[4-(4-Methyl-4H-1,2,4-triazol-3-yl)phenyl]-1H-pyrazolo[3,4-b]pyridin-5-yl}-6,7,8,9-tetrahydro-5H-benzo[7]annulen-7-yl]-3-oxa-6-azabicyclo[3.1.1]heptane]
6 | < 100 | < 100 | Cc1ncc(C)c(-c2ccc(-c3n[nH]c4ncc(-c5ccc6c(c5)CC[C@@H](N5C7COCC5C7)CC6)cc34)cc2)n1 [Example 122, 6-[(7S)-2-{3-[4-(2,5-Dimethylpyrimidin-4-yl)phenyl]-1H-pyrazolo[3,4-b]pyridin-5-yl}-6,7,8,9-tetrahydro-5H-benzo[7]annulen-7-yl]-3-oxa-6-azabicyclo[3.1.1]heptane]
7 | > 1000 | 100 to 1000 | Cc1cc(-c2ncccc2C)ccc1-c1n[nH]c2ncc(-c3ccc4c(c3)CC[C@@H](N3C5COCC3C5)CC4)cc12 [Example 30, 6-[(7S)-3-[3-[2-Methyl-4-(3-methylpyridin-2-yl)phenyl]-1H-pyrazolo[3,4-b]pyridin-5-yl]-6,7,8,9-tetrahydro-5H-benzo[7]annulen-7-yl]-3-oxa-6-azabicyclo[3.1.1]heptane]
